Assay results reported in patent US6476032B2, “2,3,4,4a-tetrahydro-1H-pyrazino[1,2-a]quinoxalin-5(6H)one derivatives” (Wyeth, priority 1998, dated 2002).
Counter-ions that a name gives are not always drawn. Like-named read-outs stand apart in the source and are kept apart here.

Assays:
[1] = target: T1, human 5-hydroxy-tryptamine2C (h5HT2C) receptor (Homo sapiens, UniProt P28335); experiment: 5HT2C Receptor Binding Test Procedure ([125I] DOI)
T1 construct: expressed in transfected cells; host or cells: CHO (Chinese Hamster Ovary) cells; membranes
T1 sequence (P28335 33-458): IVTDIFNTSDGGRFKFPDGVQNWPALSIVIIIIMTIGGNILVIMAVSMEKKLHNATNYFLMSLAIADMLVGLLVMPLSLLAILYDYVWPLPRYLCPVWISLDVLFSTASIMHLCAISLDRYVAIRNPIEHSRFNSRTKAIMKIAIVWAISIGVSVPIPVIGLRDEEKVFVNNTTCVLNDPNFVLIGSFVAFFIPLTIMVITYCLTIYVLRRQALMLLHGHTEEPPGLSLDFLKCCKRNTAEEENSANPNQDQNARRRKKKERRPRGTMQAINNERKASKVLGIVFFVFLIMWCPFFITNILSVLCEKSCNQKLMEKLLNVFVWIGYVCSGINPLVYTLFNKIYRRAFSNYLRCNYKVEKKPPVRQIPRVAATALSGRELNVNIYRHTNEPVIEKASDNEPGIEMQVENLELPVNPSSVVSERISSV

human 5-HT2C receptor = target: T2, human 5-HT2C receptor (Homo sapiens, UniProt P28335); experiment: Stimulation of [3H] Inositol Monophosphate Production by 5HT2C Agonists; type: cell-based
T2 construct: expressed in transfected cells; host or cells: CHO cells
T2 sequence (P28335 33-458): T1 sequence (P28335 33-458)
Experimental: One (1) ml of maintenance medium containing 1 μCi/ml myo-[^3H] inositol was added to each well. After 48 hours labeling, the cells were washed once with 0.5 ml DMEM containing 25 mM HEPES and 10 mM LiCl, then preincubated with the medium for 30 min (antagonists were included in this period if tested). At the end of the preincubation, the medium was removed, the cells were then incubated with test compounds (in presence of antagonists if needed) for 30 min. The reaction was terminated by removal of the incubation solution and addition of 0.5 ml ice-cold 5% PCA, followed by 15 to 30 min incubation on ice. 200 μl of 0.5 M Tes/1.5 M K2CO3 was added to each well to neutralize to pH 7, and plates were left on ice for another 15 to 30 min to precipitate all salts. The liquid and solid phases were separated by centrifugation.
A portion (350 μl) of the upper aqueous phase was applied to Dowex AG-1X8 (formate form, 100-200 mesh) columns. The columns were then washed stepwise with 10 ml of water and 10 ml of 25 mM ammonium formate to remove free myo-[^3H]inositol and deacylated phosphoinositol, respectively. Finally 10 ml of 0.2 M ammonium formate solution was applied to the columns to elute [^3H] inositol monophosphate ([^3H] IP1) directly into scintillation vials. Of this eluate, 1 ml was used to determine radioactivity by scintillation counting.
A 3-parameter logistic function is used to generate estimate of EC50/IC50.

[2] = system: food intake in male Sprague-Dawley rats; experiment: Effects of Compounds on Feeding Behavior in Rats (food intake, 24 hr fast); type: in vivo; conditions: Rattus norvegicus, dose giving 50% reduction in food intake
Experimental: Effects of Compounds on Feeding Behavior in Rats
Eight (8) male Sprague-Dawley rats weighing 150-180 g were separated into individual cages and acclimated to a powdered diet for 2 weeks. During this period and throughout the test procedure, the food cup and the animals were weighed daily. Following the acclimation period, animals were fasted for 24 hours and then injected with either vehicle or one of 4 doses of the test compound. Food intake was assessed at 2 and 24 hours following compound administration. Compounds to be evaluated were injected 1-2× per week until all animals had received all doses of the test compound. The order of doses were chosen using to a modified Latin Square design. Additional studies may be conducted in satiated rats at the start of the dark cycle. Compounds were injected i.p, s.c. or p.o. At the end of the study effects of the test compound on food intake was evaluated using a repeated measures ANOVA. Data were collected were 2 hour food intake (g). Data were subjected to one-way ANOVA with posthoc t-tests to assess group differences. Where appropriate, ED50 values were calculated.

[3] = read-out: 5HT2C % Emax (5HT, 100%)
[4] = CHO cells expressing human 5-HT2C, read-out: Stimulation of IP3 (EC50)
[5] = read-out: 5HT2C Affinity DOI/Agonist binding (Ki), [125I] DOI agonist binding

`O=C1Nc2ccc(Cl)cc2N2CCNC[C@H]12` (as salt: hydrochloride) [Example 12, (R)-9-Chloro-2,3,4,4a-Tetrahydro-1H-Pyrazino[1,2a]Quinoxalin-5(6H)-One] showed a melting point of 146 to 149 °C.
`Clc1cc2c(cc1Cl)N1CCNC[C@@H]1CN2` (single isomer, unassigned) [Example 5, dihydrochloride] gave a Ki [1] of 7 nM, an EC50 (human 5-HT2C receptor) of 33.8 nM and an Emax (human 5-HT2C receptor; [3]) of 100%.
In the case of `Clc1cc2c(cc1Cl)N1CCNC[C@H]1CN2` (single isomer, unassigned) [Example 6, dihydrochloride], the Ki [1] is reported as 8 nM, the EC50 (human 5-HT2C receptor) is reported as 23.2 nM and the Emax (human 5-HT2C receptor; [3]) is reported as 77%.
Work on `O=C1Nc2cc(Cl)c(Cl)cc2N2CCNCC12` (centres unmarked) [Example 1, 8,9-Dichloro-2,3,4,4a-Tetrahydro-1H-Pyrazino[1,2-a]Quinoxalin-5(6H)-One] yielded a Ki [1] of 4.33 nM, an EC50 (human 5-HT2C receptor; [4]) of 12 nM and an Emax (human 5-HT2C receptor; [3]) of 108%. For the same molecule, the ED50 ([2]; ip) was 1.91 mg/kg and the ED50 ([2]; po) was 9.73 mg/kg.
In the case of `O=C1Nc2cc(Cl)c(Cl)cc2N2CCNC[C@H]12` [Example 2, (R)-8,9-Dichloro-2,3,4,4a-Tetrahydro-1H-Pyrazino[1,2-a]Quinoxalin-5(6H)-One], the Ki [1] is reported as 4.18 nM, the EC50 (human 5-HT2C receptor; [4]) is reported as 7.92 nM and the Emax (human 5-HT2C receptor; [3]) is reported as 112%. The ED50 ([2]; ip) was 1.99 mg/kg.
`O=C1Nc2cc(Cl)c(Cl)cc2N2CCNC[C@@H]12` [Example 3, (S)-8,9-Dichloro-2,3,4,4a-Tetrahydro-1H-Pyrazino[1,2-a]Quinoxalin-5(6H)-One] showed a Ki [1, 5] of 66.4 nM, an EC50 (human 5-HT2C receptor; [4]) of 290 nM and an Emax (human 5-HT2C receptor; [3]) of 89%.
Work on `Clc1cc2c(cc1Cl)N1CCNCC1CN2` (centres unmarked) [Example 4, 8,9-Dichloro-2,3,4,4a,5,6-Hexahydro-1H-Pyrazino[1,2-a]Quinoxaline, dihydrochloride] yielded a Ki [1, 5] of 1 nM, an EC50 (human 5-HT2C receptor) of 7.32 nM and an Emax (human 5-HT2C receptor; [3]) of 99%.
`O=C1Nc2cc(C(F)(F)F)c(Cl)cc2N2CCNCC12` (centres unmarked) [Example 7, 9-Chloro-8-Trifluoromethyl-2,3 4,4a-Tetrahydro-1H-Pyrazino[1,2-a]-Quinoxalin-5(6H)-One, Hydrochloride] showed a Ki [1] of 8 nM, an EC50 (human 5-HT2C receptor; [4]) of 97.3 nM and an Emax (human 5-HT2C receptor; [3]) of 100%.
Work on `O=C1Nc2cc(C(F)(F)F)c(Cl)cc2N2CCNC[C@@H]12` [Example 8, (S)-9-Chloro-8-Trifluoromethyl-2,3,4,4a-Tetrahydro-1H-Pyrazino[1,2-a]-Quinoxalin-5(6H)-One. Hydrochloride] yielded a Ki [1, 5] of 516 nM, an EC50 (human 5-HT2C receptor; [4]) of 2610 nM and an Emax (human 5-HT2C receptor; [3]) of 85%.
`O=C1Nc2cc(C(F)(F)F)c(Cl)cc2N2CCNC[C@H]12` [Example 9, (R)-9-Chloro-8-Trifluoromethyl-2,3,4,4a-Tetrahydro-1H-Pyrazino[1,2-a]-Quinoxalin-5(6H)-One, Hydrochloride] showed a Ki [1, 5] of 25 nM, an EC50 (human 5-HT2C receptor; [4]) of 18.8 nM and an Emax (human 5-HT2C receptor; [3]) of 100%.
Molecule `O=C1Nc2ccc(Cl)c(Cl)c2N2CCNCC12` (centres unmarked) [Example 10, 9,10-Dichloro-2,3.4,4a-Tetrahydro-1H-Pyrazino[1,2-a]-Quinoxalin-5(6H)-One, Hydrochloride] has a Ki [1] of 1040 nM.
With `Cl.O=C1Nc2c(Cl)cc(Cl)cc2N2CCNCC12` (centres unmarked) [Example 11, 7,9-Dichloro-2,3,4,4A-Tetrahydro-1H-Pyrazino[1,2-a]Quinoxalin-5(6H)-One, Hydrochloride] the Ki [1, 5] was 19.8 nM, the Emax (human 5-HT2C receptor; read-out: 5HT2C % Emax (5HT, 100%) at single concentration) was 73% and the ED50 ([2]; ip) was 9.99 mg/kg.
`O=C1Nc2ccc(Cl)cc2N2CCNC[C@H]12` [Example 12, (R)-9-Chloro-2,3,4,4a-Tetrahydro-1H-Pyrazino[1,2a]Quinoxalin-5(6H)-One] gave a Ki [1] of 9 nM, an EC50 (human 5-HT2C receptor) of 30 nM and an Emax (human 5-HT2C receptor; [3]) of 95%.
Molecule `O=C1Nc2cc(F)c(F)cc2N2CCNCC12` (centres unmarked) [Example 13, 8,9-Difluoro-2,3,4,4a-Tetrahydro-1H-Pyrazino[1,2-a]Quinoxalin-5(6H)-One] has a Ki [1, 5] of 91 nM.
Work on `CSc1ccc2c(c1)C(N1CCN(C)CC1)Cc1ccccc1S2` (centres unmarked) [Methiothepin, reference compound] yielded a Ki ([1]; reference compounds, [125I] DOI binding, CHO cell membranes, read-out: Ki value and 95% confidence interval) of 4.6 nM.
Work on `COc1cc(CC(C)N)c(OC)cc1I` (centres unmarked) [[^125I] DOI, reference compound] yielded a Kd ([1]; read-out: dissociation constant, KD of [125I] DOI at the human serotonin 5HT2C receptor, saturation binding with increasing concentrations of [125I] DOI) of 0.4 nM.
